These results are taken from patent US20240366809A1, “INHIBITOR OF PROSTATE SPECIFIC MEMBRANE ANTIGEN AND PHARMACEUTICAL USE THEREOF” (TIANJIN HENGRUI MEDICINE CO., LTD., priority 2021, published 2024).

Each structure is given as a SMILES string.

In assay [1] the target is T1, rhPSMA (Homo sapiens (Human), UniProt Q04609). The assay can be described thus: Tests for inhibitory activity against PSMA (Test Example 1). It is filed as biochemical. The conditions noted are these: rhPSMA 50 ng/well, substrate N-Acetyl-Asp-Glu, 37° C. 1 h. The procedure:
• 1. Multifunctional microplate reader (SPARK, TECAN) • 2. rhPSMA (R&D, 4234-ZN) • 3. N-Acetyl-Asp-Glu (Sigma, A5930) • 4. OPA (Sigma, P0657)
PSMA inhibitors can bind to the enzyme PSMA to prevent the enzyme PSMA from decomposing the substrate N-Acetyl-Asp-Glu. In this experiment, the extent to which the substrate was decomposed and the resulting ultraviolet absorption changes were measured to evaluate the capacities of the PSMA inhibitors to bind to the enzyme PSMA, and the activity of the compounds was evaluated with IC50 values.
(§1) Buffer 1 (50 mM HEPES, 0.1 M NaCl, pH 7.5) was used to prepare a 0.4 μg/mL rhPSMA solution and a 40 μM solution of the substrate N-Acetyl-Asp-Glu. rhPSMA was mixed with the small molecules to be tested in a 96-well plate, with a constant rhPSMA content of 50 ng/well maintained. Meanwhile, the small molecules were step-wise diluted to final concentrations of 1 μM, 100 nM, 33.3 nM, 11.1 nM, 3.7 nM, 1.2 nM, 0.41 nM, 0.137 nM, 0.045 nM, and 0 nM. In addition, a positive control was set up using PSMA-617. The rhPSMA-small molecules were taken at 40 μL/well and well mixed with the 40 μM solution of the substrate N-Acetyl-Asp-Glu (40 μL/well). The mixtures were incubated at 37° C. in the dark for 1 h, were heated at 70° C. for 5 min to quench the reactions, and were cooled to room temperature. Buffer 2 (0.2 M NaOH, 0.1% beta-Mercaptoethanol) was used to prepare a 15 mM OPA solution. The OPA solution was added to the reaction systems at 80 μL/well and well mixed, and then the plate was incubated at room temperature for 10 min. The mixtures were taken at 100 μL/well and added to a 96-well Flat Black. With the excitation wavelength set to 330 nm and the emission wavelength to 465 nm, the intensity of signals was measured. IC50 values were obtained from dose-response curves.
The capacities of the compounds of the present disclosure to bind to the enzyme GCPII can be measured through the assay described above.

Assay [2] deals with T1, rhPSMA. Briefly: Affinity assays using enzyme activity method (Test Example 2). The class given is biochemical. The conditions noted are these: for Ratio to PSMA-617: ratio of IC50 values; for IC50: rhPSMA 50 ng/well, substrate N-Acetyl-Asp-Glu, 37° C. 1 h. The procedure: as §1

T1 sequence (Q04609 44-750): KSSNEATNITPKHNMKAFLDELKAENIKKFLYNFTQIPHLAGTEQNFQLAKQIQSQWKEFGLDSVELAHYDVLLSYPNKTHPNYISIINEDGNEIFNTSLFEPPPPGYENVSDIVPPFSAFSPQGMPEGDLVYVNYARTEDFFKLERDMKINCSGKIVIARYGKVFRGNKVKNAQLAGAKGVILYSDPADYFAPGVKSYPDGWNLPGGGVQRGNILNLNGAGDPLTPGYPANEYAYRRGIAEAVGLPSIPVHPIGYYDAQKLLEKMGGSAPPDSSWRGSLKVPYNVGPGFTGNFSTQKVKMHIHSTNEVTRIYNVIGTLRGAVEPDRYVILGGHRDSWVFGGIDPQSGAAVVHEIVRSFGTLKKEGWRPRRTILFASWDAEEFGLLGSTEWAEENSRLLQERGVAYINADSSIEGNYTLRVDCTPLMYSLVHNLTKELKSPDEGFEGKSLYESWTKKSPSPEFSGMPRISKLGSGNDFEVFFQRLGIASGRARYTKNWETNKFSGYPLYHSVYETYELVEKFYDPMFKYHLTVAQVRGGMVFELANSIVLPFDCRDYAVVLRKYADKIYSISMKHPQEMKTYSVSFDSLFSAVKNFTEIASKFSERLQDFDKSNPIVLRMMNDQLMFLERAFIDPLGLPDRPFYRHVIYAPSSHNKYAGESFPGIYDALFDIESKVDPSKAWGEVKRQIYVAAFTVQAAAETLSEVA

For the compound `NCc1cnn([C@@H](Cc2ccccc2)C(=O)NCCCC[C@H](NC(=O)N[C@@H](CCC(=O)O)C(=O)O)C(=O)O)c1`, the IC50 at rhPSMA [1] came to 143 nM.

At rhPSMA [1], `N[C@@H](Cc1ccncc1)C(=O)NCCCC[C@H](NC(=O)N[C@@H](CCC(=O)O)C(=O)O)C(=O)O` came in with an IC50 of 178 nM.

As to `NCc1ccc(C(=O)Nc2cccc(C(=O)NCCCC[C@H](NC(=O)N[C@@H](CCC(=O)O)C(=O)O)C(=O)O)n2)cc1`, half-maximal inhibition against rhPSMA [1] (IC50) was put at 2.42 nM.

In turn, `O=C(O)CC[C@H](NC(=O)N[C@@H](CCCCNC(=O)[C@H](Cc1ccc2ccccc2c1)NC(=O)C1CC12CCNCC2)C(=O)O)C(=O)O` (some centres unmarked) came in with an IC50 on rhPSMA [1] of 2.4 nM.

Take `O=C(O)CC[C@H](NC(=O)N[C@@H](CCCCNC(=O)[C@H](Cc1ccc2ccccc2c1)NC(=O)N1CCC(CNC(=O)CN2CCN(CC(=O)O)CCN(CC(=O)O)CCN(CC(=O)O)CC2)CC1)C(=O)O)C(=O)O`: the IC50 against rhPSMA [1] turned out to be 4.13 nM.

On to `O=C(O)CC[C@H](NC(=O)N[C@@H](CCCCNC(=O)[C@H](Cc1ccc2ccccc2c1)NC(=O)[C@H]1CC[C@]2(CC1)CN(C(=O)CN1CCN(CC(=O)O)CCN(CC(=O)O)CCN(CC(=O)O)CC1)CCO2)C(=O)O)C(=O)O` [Example 9, (((S)-1-carboxy-5-((S)-3-(2-naphthyl)-2-((6S,9r)-4-(2-(4,7,10-tris(carboxymethyl)-1,4,7,10-tetraazacyclododecanyl)acetyl)-1-oxa-4-azaspiro[5.5]undecane-9-carboxamido)propanamido)pentyl)carbamoyl)-L-glutamic acid], for which, on rhPSMA [2] (enzyme activity experiment, FIG. 1), the “affinity, comparison in words” value is listed as “better affinity than compound x of Example 11”. Besides, at rhPSMA [2], the “Ratio to PSMA-617” value stood at 0.74 and it took 1.23 nM to reach half-maximal inhibition (IC50).

Turning to `O=C(O)CC[C@H](NC(=O)N[C@@H](CCCCNC(=O)[C@H](Cc1ccc2ccccc2c1)NC(=O)[C@H]1CC[C@@]2(CC1)CN(C(=O)CN1CCN(CC(=O)O)CCN(CC(=O)O)CCN(CC(=O)O)CC1)CCO2)C(=O)O)C(=O)O` [Example 11, (((S)-1-carboxy-5-((S)-3-(2-naphthyl)-2-((6R,9s)-4-(2-(4,7,10-tris(carboxymethyl)-1,4,7,10-tetraazacyclododecanyl)acetyl)-1-oxa-4-azaspiro[5.5]undecane-9-carboxamido)propanamido)pentyl)carbamoyl)-L-glutamic acid], on rhPSMA [2], the “Ratio to PSMA-617” value turned out to be 7.85 and the midpoint of inhibition, the IC50, lay at 13 nM.

In turn, `O=C(O)CC[C@H](NC(=O)N[C@@H](CCCCNC(=O)[C@H](Cc1ccc2ccccc2c1)NC(=O)[C@H]1CC[C@H](CNC(=O)CN2CCN(CC(=O)O)CCN(CC(=O)O)CCN(CC(=O)O)CC2)CC1)C(=O)O)C(=O)O` [PSMA-617, reference compound] came in with an IC50 at rhPSMA [1] of 2.36 nM. Also, at rhPSMA [2], the “Ratio to PSMA-617” value came to 1.00 and the IC50 is 1.65 nM.

`O=C(O)CC[C@H](NC(=O)N[C@@H](CCCCNC(=O)[C@H](Cc1ccc2ccccc2c1)NC(=O)[C@H]1CC[C@@]2(CC1)CN(C(=O)CN1CCN(CC(=O)O)CCN(CC(=O)O)CCN(CC(=O)O)CC1)CCO2)C(=O)O)C(=O)O` [drawing 156] came in with an IC50 at rhPSMA [1] of 1.52 nM.
